{"source": "patent US9889157B2", "about": "“Phosphate-binding magnesium salts and uses thereof” (Cypress Pharmaceuticals, Inc., priority 2009, dated 2018)", "assay": "Phosphate-binding assay in phosphate-binding solution (PBS) simulating small intestinal fluid (SIF)", "experimental": "Exemplary stock solutions suitable for phosphate-binding assays include the following: phosphate-binding solution (“PBS”) containing 10 mM KH2PO4, 30 mM Na2CO3, 80 mM NaCl, as described in Rosenbaum et al. Nephrol. Dial. Transplant. 12:961-964 (1997); acetate buffer (“AB”) solution containing 0.1N acetic acid, 0.025N sodium acetate, as described in Lowry & Lopez J. Biol. Chem. 162:421-428 (1946); ammonium molybdate (“AM”) solution containing 1% ammonium molybdate in 0.05N H2SO4, as described in Lowry & Lopez; ascorbic acid (“AA”) solution containing 1% ascorbic acid in H2O, as described in Lowry & Lopez.\nIn general, the phosphate-binding assay was conducted in 12×75 mm glass tubes. 4.0 mL PBS (which is a solution simulating SIF) and 20 mg putative phosphate binder were added to a glass tube and then mixed for 1 h at room temperature. 0.1 mL supernatant was pipetted from this tube to a new test tube. 3.0 mL AB, 0.3 mL AA and 0.3 mL AM solutions were added and O.D. were measured at 700 nm after 10 minutes.\nThe phosphate binding capacity was calculated as follows (mcg stands for micrograms): ((O.D. of sample×95)/O.D. of standard)×40=mcgPO4 left in solution ((3800−mcgPO4 left)×50)/1000=mgPO4 bound per gram of phosphate binder", "key": {"[1]": {"settings": "Table 2, 20 mg binder in 4.0 mL PBS, 1 h, room temperature"}, "[2]": {"settings": "Table 3, 20 mg binder in 4.0 mL PBS, 1 h, room temperature"}, "[3]": {"settings": "Table 4, calculated from Table 3 and % Mg (or % Ca)"}}, "data": [{"compound": "O=C([O-])[O-].[Mg+2]", "note": "[MgCO3, magnesium carbonate]", "values": [{"measurement": "PO4 binding", "setting": "[1]", "value": 19.0, "unit": "mg/g"}, {"measurement": "PO4 binding", "setting": "[2]", "value": 22, "unit": "mg/g"}]}, {"compound": "O=C([O-])CCC(=O)[O-].[Mg+2]", "note": "[Mg succinate]", "values": [{"measurement": "PO4 binding", "setting": "[2]", "value": 18, "unit": "mg/g"}]}, {"compound": "[Mg+2].[OH-].[OH-]", "note": "[Mg(OH)2, magnesium hydroxide]", "values": [{"measurement": "PO4 binding", "setting": "[1]", "value": 176.2, "unit": "mg/g"}, {"measurement": "PO4 binding", "setting": "[2]", "value": 182, "unit": "mg/g"}, {"measurement": "mg PO4 bound per g Mg or Ca in compound", "setting": "[3]", "value": "436 mg PO4 per g Mg or Ca"}, {"measurement": "mg PO4 bound per g compound", "setting": "Table 4, taken from Table 3", "value": 182, "unit": "mg PO4 per g compound"}, {"measurement": "PO4 binding", "setting": "Table 6, without acid treatment", "value": 179.0, "unit": "mg/g"}]}, {"compound": "O.O.O.O.O.O.O.O=S(=O)([O-])[O-].[Mg+2]", "note": "[MgSO4•7H2O]", "values": [{"measurement": "PO4 binding", "setting": "[1]", "value": 19.0, "unit": "mg/g"}]}, {"compound": "O=C([O-])CC(O)(CC(=O)[O-])C(=O)[O-].O=C([O-])CC(O)(CC(=O)[O-])C(=O)[O-].[Mg+2].[Mg+2].[Mg+2]", "note": "[Mg citrate]", "values": [{"measurement": "PO4 binding", "setting": "[1]", "value": 16.3, "unit": "mg/g"}, {"measurement": "PO4 binding", "setting": "[2]", "value": 15, "unit": "mg/g"}]}, {"compound": "[Cl-].[Cl-].[Mg+2]", "note": "[Mg chloride, magnesium chloride]", "values": [{"measurement": "PO4 binding", "setting": "[2]", "value": 4, "unit": "mg/g"}]}, {"compound": "magnesium arginate [Mg arginate]", "values": [{"measurement": "PO4 binding", "setting": "[2]", "value": 121, "unit": "mg/g"}, {"measurement": "mg PO4 bound per g Mg or Ca in compound", "setting": "[3]", "value": "1862 mg PO4 per g Mg or Ca"}, {"measurement": "mg PO4 bound per g compound", "setting": "Table 4, taken from Table 3", "value": 121, "unit": "mg PO4 per g compound"}, {"measurement": "mg PO4 bound per g Mg or Ca in compound", "setting": "Table 5, additional results", "value": "1815 mg PO4 per g Mg (or Ca)"}, {"measurement": "mg PO4 bound per g compound", "setting": "Table 5, additional results", "value": 118, "unit": "mg PO4 per g compound"}]}, {"compound": "Mg stearate", "values": [{"measurement": "PO4 binding", "setting": "[2]", "value": 15, "unit": "mg/g"}]}, {"compound": "O=C1O[C@H]([C@@H](O)CO)C(O)=C1[O-].O=C1O[C@H]([C@@H](O)CO)C(O)=C1[O-].[Mg+2]", "note": "[Mg ascorbate]", "values": [{"measurement": "PO4 binding", "setting": "[2]", "value": 4, "unit": "mg/g"}]}, {"compound": "magnesium betainate [Mg betainate]", "values": [{"measurement": "PO4 binding", "setting": "[2]", "value": 147, "unit": "mg/g"}, {"measurement": "mg PO4 bound per g Mg or Ca in compound", "setting": "[3]", "value": "1547 mg PO4 per g Mg or Ca"}, {"measurement": "mg PO4 bound per g compound", "setting": "Table 4, taken from Table 3", "value": 147, "unit": "mg PO4 per g compound"}, {"measurement": "mg PO4 bound per g Mg or Ca in compound", "setting": "Table 5, additional results", "value": "1484 mg PO4 per g Mg (or Ca)"}, {"measurement": "mg PO4 bound per g compound", "setting": "Table 5, additional results", "value": 141, "unit": "mg PO4 per g compound"}]}, {"compound": "NCC(=O)[O-].NCC(=O)[O-].[Mg+2]", "note": "[Mg glycinate, magnesium glycinate]", "values": [{"measurement": "PO4 binding", "setting": "[2]", "value": 176, "unit": "mg/g"}, {"measurement": "mg PO4 bound per g Mg or Ca in compound", "setting": "[3]", "value": "1248 mg PO4 per g Mg or Ca"}, {"measurement": "mg PO4 bound per g compound", "setting": "Table 4, taken from Table 3", "value": 176, "unit": "mg PO4 per g compound"}, {"measurement": "mg PO4 bound per g Mg or Ca in compound", "setting": "Table 5, additional results", "value": "1255 mg PO4 per g Mg (or Ca)"}, {"measurement": "mg PO4 bound per g compound", "setting": "Table 5, additional results", "value": 177, "unit": "mg PO4 per g compound"}]}, {"compound": "CC(O)C(=O)[O-].CC(O)C(=O)[O-].[Mg+2]", "note": "(stereo not shown) [Mg lactate]", "values": [{"measurement": "PO4 binding", "setting": "[2]", "value": 15, "unit": "mg/g"}]}, {"compound": "O=C([O-])[O-].[Ca+2]", "note": "[CaCO3, calcium carbonate, reference compound]", "values": [{"measurement": "PO4 binding", "setting": "[1]", "value": 10.9, "unit": "mg/g"}]}, {"compound": "[O]=[Mg]", "note": "[MgO, magnesium oxide]", "values": [{"measurement": "PO4 binding", "setting": "[1]", "value": 184.0, "unit": "mg/g"}, {"measurement": "PO4 binding", "setting": "[2]", "value": "≧190 mg/g"}, {"measurement": "mg PO4 bound per g Mg or Ca in compound", "setting": "[3]", "value": "315 mg PO4 per g Mg or Ca"}, {"measurement": "mg PO4 bound per g compound", "setting": "Table 4, taken from Table 3", "value": 190, "unit": "mg PO4 per g compound"}, {"measurement": "mg PO4 bound per g Mg or Ca in compound", "setting": "Table 5, additional results", "value": "310 mg PO4 per g Mg (or Ca)"}, {"measurement": "mg PO4 bound per g compound", "setting": "Table 5, additional results", "value": 187, "unit": "mg PO4 per g compound"}]}, {"compound": "O=C([O-])c1cccnc1.O=C([O-])c1cccnc1.[Mg+2]", "note": "[Mg nicotinate]", "values": [{"measurement": "PO4 binding", "setting": "[2]", "value": 4, "unit": "mg/g"}]}, {"compound": "CC(=O)[O-].CC(=O)[O-].[Mg+2]", "note": "[Mg acetate]", "values": [{"measurement": "PO4 binding", "setting": "[2]", "value": 4, "unit": "mg/g"}]}, {"compound": "O=C([O-])/C=C/C(=O)[O-].[Mg+2]", "note": "[Mg fumarate]", "values": [{"measurement": "PO4 binding", "setting": "[2]", "value": 4, "unit": "mg/g"}]}, {"compound": "magnesium lysinate [Mg lysinate]", "values": [{"measurement": "PO4 binding", "setting": "[2]", "value": 150, "unit": "mg/g"}, {"measurement": "mg PO4 bound per g Mg or Ca in compound", "setting": "[3]", "value": "1948 mg PO4 per g Mg or Ca"}, {"measurement": "mg PO4 bound per g compound", "setting": "Table 4, taken from Table 3", "value": 150, "unit": "mg PO4 per g compound"}, {"measurement": "mg PO4 bound per g Mg or Ca in compound", "setting": "Table 5, additional results", "value": "1792 mg PO4 per g Mg (or Ca)"}, {"measurement": "mg PO4 bound per g compound", "setting": "Table 5, additional results", "value": 138, "unit": "mg PO4 per g compound"}, {"measurement": "phosphate bound by 1 gram of Mg in the salt relative to 1 gram of calcium in PhosLo (Ca acetate)", "setting": "from Table 4", "value": "almost three times as much"}]}, {"compound": "N[C@@H](CC(=O)[O-])C(=O)[O-].[Mg+2]", "note": "[Mg aspartate, magnesium aspartate]", "values": [{"measurement": "PO4 binding", "setting": "[2]", "value": 50, "unit": "mg/g"}]}, {"compound": "O=C([O-])C(O)C(O)C(=O)[O-].[Mg+2]", "note": "(stereo not shown) [Mg tartrate, magnesium tartrate]", "values": [{"measurement": "PO4 binding", "setting": "[2]", "value": 28, "unit": "mg/g"}]}, {"compound": "O=S(=O)([O-])[O-].[Mg+2]", "note": "[Mg sulfate]", "values": [{"measurement": "PO4 binding", "setting": "[2]", "value": 9, "unit": "mg/g"}]}, {"compound": "O=C([O-])CC(O)C(=O)[O-].[Mg+2]", "note": "(stereo not shown) [Mg malate]", "values": [{"measurement": "mg PO4 bound per g compound", "setting": "Table 5, additional results", "value": 29, "unit": "mg PO4 per g compound"}]}, {"compound": "O=C([O-])CCCCC(=O)[O-].[Mg+2]", "note": "[Mg adipate]", "values": [{"measurement": "PO4 binding", "setting": "[2]", "value": 6, "unit": "mg/g"}]}, {"compound": "O=C([O-])c1cc(=O)[nH]c(=O)[nH]1.O=C([O-])c1cc(=O)[nH]c(=O)[nH]1.[Mg+2]", "note": "[Mg orotate]", "values": [{"measurement": "PO4 binding", "setting": "[2]", "value": 20, "unit": "mg/g"}]}, {"compound": "O=C[O-].O=C[O-].[Mg+2]", "note": "[Mg formate]", "values": [{"measurement": "PO4 binding", "setting": "[2]", "value": 6, "unit": "mg/g"}]}, {"compound": "magnesium aminobutyrate [Mg aminobutyrate]", "values": [{"measurement": "PO4 binding", "setting": "[2]", "value": 85, "unit": "mg/g"}, {"measurement": "mg PO4 bound per g compound", "setting": "Table 5, additional results", "value": 76, "unit": "mg PO4 per g compound"}]}, {"compound": "O=C([O-])/C=C\\C(=O)[O-].[Mg+2]", "note": "[Mg maleate]", "values": [{"measurement": "PO4 binding", "setting": "[2]", "value": 15, "unit": "mg/g"}]}, {"compound": "CCC(=O)[O-].CCC(=O)[O-].[Mg+2]", "note": "[Mg propionate, magnesium propionate]", "values": [{"measurement": "PO4 binding", "setting": "[2]", "value": 59, "unit": "mg/g"}]}, {"compound": "magnesium carnitinate [Mg carnitinate]", "values": [{"measurement": "PO4 binding", "setting": "[2]", "value": 169, "unit": "mg/g"}]}]}
